Measurements: patent US20100196275A1, “Methods and products for neutralizing the harmful effects of combustion products” (priority 2006, published 2010)
Entries after “also recorded” stand apart in the source; their conditions may differ.

What was measured:
[1] = system: nucleotide excision repair (NER); conditions: previously found, earlier publications; cited from earlier work
[2] = system: nucleotide excision repair (NER); assay: Host cell reactivation (HCR) assay; assay type: cell-based, human; conditions: NHLF treated with Acr for 1 h, BPDE-modified luciferase plasmid
Experimental: (§1) Determination of the Effect of Acr Treatment on DNA Repair. Host cell reactivation (HCR) and in vitro DNA repair synthesis assays were performed as previously described to determine the effects of Acr treatment on DNA repair in human cells (Feng, Z., Hu, W., & Tang, M.-s. (2004) Proc. Nat. Acad. Sci. 101, 8598-8602; Feng, Z., Hu, W., Marnett, L., & Tang, M.-s. Mutat. Res. in press).

[3] = system: nucleotide excision repair (NER); assay: In vitro DNA damage-specific repair synthesis assay; assay type: biochemical, human
Experimental: as §1

supF gene = assay: supF shuttle vector pSP189 mutation assay in NHLF; assay type: cell-based, human; parameters: dose or concentration left out as unconfirmed; conditions: pSP189 modified with Acr, replicated in NHLF
Experimental: Determination of Mutations Induced by Acr-DNA Adducts. The methods used for mutation detection and for mutational spectrum determination were the same as previously described (Feng, Z., Hu, W., Amin, S., & Tang, M.-s. (2003) Biochemistry 42, 7848-7854). Briefly, shuttle vector pSP189 plasmid DNA was modified with different concentrations of Acr, and transfected into NHLF for replication. Plasmids were recovered 72 h after transfection, and replicated plasmids were then transformed into MB7070 E. coli indicator cells. The supF gene in plasmids isolated from mutant white colonies were then sequenced.

[4] = rats; cited from earlier work

CCCCCC(O)/C=C/C=O (stereo not drawn) [4-HNE]
effect on cellular NER capacity [1]: greatly reduce cellular nucleotide excision repair (NER) capacity

C=CC=O [Acr, Acrolein]
effect on repair of BPDE-DNA adducts (NER capacity) [2]: greatly inhibit NER for BPDE-induced DNA damage
inhibitory effect, cell lysates directly treated versus whole cells treated ([3]; NHLF): much more pronounced in cell lysates directly treated with Acr than whole cells treated with Acr
effect on repair of BPDE-DNA adducts (NER capacity) ([3]; NHLF cell extracts, BPDE-modified pUC18): greatly inhibit NER for BPDE-induced DNA damage
G to T transversions among base substitution mutants sequenced (supF gene): 28 out of 55
mutation frequency (supF gene): 120×10^−4
share of G to T transversions among base substitutions (supF gene): more than 50%
bladder tumour occurrence [4]: greatly enhances urinary bladder papilloma occurrence in rats; also recorded: cause bladder cancer in rats

O=CCC=O [MDA]
effect on cellular NER capacity [1]: greatly reduce cellular nucleotide excision repair (NER) capacity
